# From article PMC11148045, “Structural basis for recognition of 26RFa by the pyroglutamylated RFamide peptide receptor” (Cell Discovery, 2024)
# No end group written: not given here.
# Key:
# NPY1R and NPY4R = settings: cited from earlier work; for role of hydrogen bond of Tyr36 with Q^5.46 in activity: NPY1R and NPY4R
# Excerpt: Specifically, Arg25 and Arg35 in 26RFa and NPY/PP are exposed to a conserved polar environment that includes residues E^45.52, T^5.39, and D/E^6.59 in QRFPR and NPYRs. However, subtle differences exist in the special binding interactions between these arginines and conserved polar residues (Fig. 4d–f). Side chains of Arg35 in NPY/PP form a conserved salt bridge with D^6.59 and a hydrogen bond with T^5.39 (NPY1R and NPY4R) or a salt bridge with E^45.52 (NPY2R) (Fig. 4e, f). In 26RFa, Arg25 retains its salt bridge with E203^45.52 but fails to build a salt bridge with E297^6.59 (Fig. 3b). It is p ... || Phe26 in 26RFa and Tyr36 in NPY/PP show distinct binding characteristics for QRFRP and NPYRs, respectively. […] (Fig. 4e). However, in NPY2R, this hydrogen bond is absent due to the substitution of glutamine with leucine at position 5.46, which lacks a hydrogen bond donor (Fig. 4c, f). Similarly, QRFPR also has a leucine at position 5.46, which cannot form a corresponding hydrogen bond with Phe26 in 26RFa. Furthermore, in contrast to the notable impact of Q^5.46 on the NP ...
# QRFPR = settings: cited from earlier work
# Excerpt: cDNA encoding the precursor or orthologue of 26RFa is detected in vertebrates, from fish[16], and phasianidae, to mammals. In humans, 26RFa and its N-terminal extended mature peptide 43RFa are extracted from the human brain, and mRNA of QRFPR is detected in the hypothalamus, vestibular nuclei, and other areas of the central nervous system. QRFPR is also detected in some peripheral organs[18],[19]. Both 26RFa and 43RFa are endogenous ligands for QRFPR (GPR103)[4],[18]. The amino acid sequences of 26RFa are conserved among mammalian species, with 26RFa from rats being slightly mor ... || Considerable efforts have been dedicated to elucidating the recognition mechanism of 26RFa by QRFPR. […] This segment served as a molecular scaffold for the development of low molecular weight peptides with enhanced potency and increased stability[21],[28]. […] Globally, the 26RFa segment (Gly20–Phe24) leans to TM2, but is far from TMs 5–7, leaving a large portion of unoccupied space lined by TMs 5–7 (Fig. 3a). Two glycines (Gly20, Gly21) are compactly packed into a crevice composed of residues on ECL1, ECL2, and the N-terminus (Fig. 3a). They moderately impact 26RFa activity, as substit ... || (+ 2 further places)
# KISS1R mutants = target: T1, KISS1R mutants (Homo sapiens, UniProt Q969F8, E193A/H309A/Q122A); test: KP-10-induced calcium mobilization, receptor mutants; type: cell-based; settings: HEK293, Fluo-4, mean ± S.E.M., n ≥ 3
# T1 construct: expressed in transfected cells; host or cells: HEK293, transient transfection by electroporation
# T1 sequence (Q969F8 whole entry Q122A/E193A/H309A): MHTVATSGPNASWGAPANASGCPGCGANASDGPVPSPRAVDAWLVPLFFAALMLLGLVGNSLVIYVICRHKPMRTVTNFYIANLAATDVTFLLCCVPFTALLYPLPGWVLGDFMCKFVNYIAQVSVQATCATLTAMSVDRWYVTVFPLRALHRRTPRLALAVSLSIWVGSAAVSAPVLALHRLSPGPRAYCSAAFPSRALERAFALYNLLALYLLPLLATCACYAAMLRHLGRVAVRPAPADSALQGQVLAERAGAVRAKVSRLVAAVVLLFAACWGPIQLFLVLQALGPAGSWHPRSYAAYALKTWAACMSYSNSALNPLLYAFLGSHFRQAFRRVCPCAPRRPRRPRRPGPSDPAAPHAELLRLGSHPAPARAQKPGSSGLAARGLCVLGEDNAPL
# KISS1R (WT) = target: T2, KISS1R (WT) (Homo sapiens, UniProt Q969F8); test: KP-10-induced calcium mobilization, wild-type receptor; type: cell-based; settings: HEK293, Fluo-4, mean ± S.E.M., n ≥ 3
# T2 construct: expressed in transfected cells; host or cells: HEK293, transient transfection by electroporation
# T2 sequence (Q969F8 whole entry, species assumed): as the sequence (Q969F8 whole entry Q122A/E193A/H309A) above, with A122Q, A193E, A309H counted along it
# PrRPR mutants = target: T3, PrRPR mutants (Homo sapiens, UniProt P49683, D302A/E213A/H321A/Q141A); test: PrRP-20-induced calcium mobilization, receptor mutants; type: cell-based; settings: HEK293, Fluo-4, mean ± S.E.M., n ≥ 3
# T3 construct: expressed in transfected cells; host or cells: HEK293, transient transfection by electroporation
# T3 sequence (P49683 1-370 Q141A/E213A/D302A/H321A): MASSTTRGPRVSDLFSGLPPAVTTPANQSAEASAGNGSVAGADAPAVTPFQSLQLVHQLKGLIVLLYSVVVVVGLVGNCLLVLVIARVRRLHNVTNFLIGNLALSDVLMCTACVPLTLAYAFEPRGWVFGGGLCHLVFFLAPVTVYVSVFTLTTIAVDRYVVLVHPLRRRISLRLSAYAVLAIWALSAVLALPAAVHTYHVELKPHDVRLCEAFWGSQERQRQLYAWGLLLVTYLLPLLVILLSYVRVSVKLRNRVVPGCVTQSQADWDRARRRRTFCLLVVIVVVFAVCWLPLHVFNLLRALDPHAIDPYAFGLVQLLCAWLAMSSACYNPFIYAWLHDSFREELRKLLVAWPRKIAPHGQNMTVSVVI
# Protocol: (§1) The gene encoding the WT QRFPR, PrPRR, KISS1R, NPFF1R, or NPFF2R was subcloned into the pcDNA3.0 vector with the addition of an N-terminal HA tag. All of the mutations used for functional studies were generated by QuickChange PCR and verified by DNA sequencing.
# (§2) HEK293 cells were obtained from ATCC (Manassas, VA, USA) and cultured in DMEM supplemented with 10% (v/v) FBS, 100 mg/L penicillin, and 100 mg/L streptomycin in 5% CO2 at 37 °C. For transient transfection, ~2.5 × 10^6 cells were mixed with 2 µg plasmids in 200 µL transfection buffer, and electroporation was carried out with a Scientz-2C electroporation apparatus (Scientz Biotech, Ningbo, China). The experiments were carried out 24 h after transfection.
# (§3) For QRFPR, PrRPR, and KISS1R, HEK293 cells transfected with WT receptor or its mutants were seeded at a density of 4 × 10^4 per well into 96-well culture plates and incubated for 24 h at 37 °C in 5% CO2. For NPFF1R and NPFF2R, plasmids were transfected into HEK293 cells stably expressing Gα16. On the next day, cells were incubated with 2 μmol/L Fluo-4 AM in HBSS supplemented with 5.6 mmol/L D-glucose and 250 μmol/L sulfinpyrazone at 37 °C for 45 min. After washing, cells were added with 50 μL HBSS and incubated at room temperature for 10 min, then 25 μL agonist buffer was dispensed into the well using a FlexStation III microplate reader (Molecular Devices), and intracellular calcium change was recorded at an excitation wavelength of 485 nm and an emission wavelength of 525 nm. EC50 and Emax values for each curve were calculated by Prism 8.0 software (GraphPad Software).
# PrRPR (WT) = target: T4, PrRPR (WT) (Homo sapiens, UniProt P49683); test: PrRP-20-induced calcium mobilization, wild-type receptor; type: cell-based; settings: HEK293, Fluo-4, mean ± S.E.M., n ≥ 3
# T4 construct: expressed in transfected cells; host or cells: HEK293, transient transfection by electroporation
# T4 sequence (P49683 whole entry, species assumed): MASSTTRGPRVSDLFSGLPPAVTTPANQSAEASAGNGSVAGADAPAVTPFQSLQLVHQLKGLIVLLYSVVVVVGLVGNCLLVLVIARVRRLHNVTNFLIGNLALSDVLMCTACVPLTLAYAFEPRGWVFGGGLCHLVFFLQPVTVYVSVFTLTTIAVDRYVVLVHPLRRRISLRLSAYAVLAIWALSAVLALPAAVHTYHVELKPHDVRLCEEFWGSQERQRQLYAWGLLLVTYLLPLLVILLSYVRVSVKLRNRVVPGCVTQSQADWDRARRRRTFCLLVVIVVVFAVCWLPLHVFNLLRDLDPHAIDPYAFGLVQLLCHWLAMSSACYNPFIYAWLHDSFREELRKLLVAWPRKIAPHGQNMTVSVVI
# Protocol: as §1, §2
# as §3, with “For NPFF1R and NPFF2R, plasmids were transfected into HEK293 cells stably expressing Gα16. On the next day, cells were incubated with 2 μmol/L Fluo-4 AM in HBSS supplemented with 5.6 mmol/L D-glucose and 250 μmol/L sulfinpyrazone at 37 °C for 45 min.” left out
compound,measurement,setting,value
Neuropeptide Y [NPY],role of hydrogen bond of Tyr36 with Q^5.46 in activity,NPY1R and NPY4R,crucial for NPY/PP activity
same,"role of amide-surrounding residues (C^2.57, T^2.61, Q^3.32, Q/H^7.39) in activity",NPY1R and NPY4R,critical for 26RFa and NPY/PP activities
"26RFa (1–18): N-terminal segment of native 26RFa lacking the C-terminal octapeptide (QDEGSEATGFLPAAGEKT; QRF-amide; UniProt P83859 91-108, looked up, fragment)",ability to activate the receptor,"QRFPR; 26RFa (1–18), lacks the C-terminal octapeptide",loses its ability to activate the receptor
CC(C)C[C@H](NC(=O)CNC(=O)[C@H](Cc1ccccc1)NC(=O)[C@H](CO)NC(=O)[C@H](CC(N)=O)NC(=O)[C@H](Cc1c[nH]c2ccccc12)NC(=O)[C@H](CC(N)=O)NC(=O)[C@@H](N)Cc1ccc(O)cc1)C(=O)N[C@@H](CCCNC(=N)N)C(=O)N[C@@H](Cc1ccccc1)C(N)=O [KP-10],Emax,"KISS1R mutants; HEK293, KISS1R E193^45.52A",126 ± 6.2%
same,Emax,"KISS1R mutants; HEK293, KISS1R H309^7.39A",89.6 ± 1%
same,Emax,"KISS1R mutants; HEK293, KISS1R Q122^3.32A",12.8 ± 0.76%
same,EC50,KISS1R mutants; KISS1R E193^45.52A,0.01 µM
same,EC50,KISS1R mutants; KISS1R H309^7.39A,0.0174 µM
same,EC50,KISS1R mutants; KISS1R Q122^3.32A,0.00513 µM
same,EC50,KISS1R (WT),0.00427 µM
same,Emax,KISS1R (WT),100 ± 1.2%
pancreatic polypeptide [PP],role of hydrogen bond of Tyr36 with Q^5.46 in activity,NPY1R and NPY4R,crucial for NPY/PP activity
same,"role of amide-surrounding residues (C^2.57, T^2.61, Q^3.32, Q/H^7.39) in activity",NPY1R and NPY4R,critical for 26RFa and NPY/PP activities
26RFa from rats: 26RFa from rats; rat 26RFa (GenScript) used for the complex,"potency, rat vs human 26RFa",QRFPR; calcium mobilization,slightly more potent than that from humans
"TPDINPAWYASRGIRPVGRF-NH2 [PrRP-20, prolactin-releasing peptide]",Emax,"PrRPR mutants; HEK293, PrRPR D302^6.59A",124 ± 8.9%
same,Emax,"PrRPR mutants; HEK293, PrRPR E213^45.52A",27.7 ± 0.37%
same,Emax,"PrRPR mutants; HEK293, PrRPR H321^7.39A",19.7 ± 0.75%
same,Emax,"PrRPR mutants; HEK293, PrRPR Q141^3.32A",49.2 ± 1.2%
same,EC50,PrRPR mutants; PrRPR D302^6.59A,0.0112 µM
same,EC50,PrRPR mutants; PrRPR E213^45.52A,0.115 µM
same,EC50,PrRPR mutants; PrRPR H321^7.39A,0.0148 µM
same,EC50,PrRPR mutants; PrRPR Q141^3.32A,0.00105 µM
same,EC50,PrRPR (WT),0.0011 µM
same,Emax,PrRPR (WT),100 ± 3.9%
